One data set relates to rat pituitary cells. The format is cell-based. The procedure:
The biological activity of the novel peptides were compared with that of a synthetic standard of the natural sequence of GRF(1-44)-NH2 which was isolated from a human pancreatic tumor of an individual suffering from acromegaly (Salk Institute standard hp-GRF-NH2 (NL-A-10)). The assay for biological activity, which is based on the ability to stimulate production of growth hormone in rat pituitary cells in tissue culture, was performed in the following manner. Pituitaries from 30-40 male Sprague-Dawley rats (175 g) were removed aseptically after decapitation. The anterior lobes were collected, washed 3 times in sterile Hepes buffer (0.025M)(pH 7.35) and dispersed at 37° C. in 20-30 ml Hepes buffer (pH 7.35) containing collagenasa (4 mg per ml) and Dispase (Protease grande II, 2 mg per ml). After gentle 80 min. vortexing and trituration by Pasteur pipette, the dispersed cells were separated by centrifugation (150×g, 4 min.) and re-suspended in Hepes buffer containing neuraminidase (4 μg/ml), and 200 μg/ml ethylenediaminetetraacetic acid (EDTA) disodium salt pH 7.35, for 10 min. The cells were washed twice with plating medium and plated on multiwell-plates (1.5×10^5 cells per ml) using the following defined medium: F-12/DMEM/BGJ(6:3:1) (Gibco: 430-1700/430-1600/320-2591) with 2 g BSA/1., 2.38 g Hepes/1., 50 mg Gentamycin/1 (Schering Co.). The medium in each well was supplemented either with the novel peptide or natural GRF(1-44)-NH2 at concentrations ranging from 3.1 to 200 fmol. per ml. of medium. Control wells contained no supplement. Plating was done with this medium added with 2% fetal calf serum to ensure rapid fixation of the cells. On the fourth day the cells were washed twice with the defined medium without fetal calf serum. Finally 900 μl of defined medium was added to each well plus 100 μl of the same medium containing each individual treatment, in triplicate. After 3 hours of incubation the medium was collected and diluted as required to conduct radioimmuno- assays (RIAs) for rat growth hormone. RIAs were conducted using Sinha's anti-murine GH immune serum and procedures according to the National Pituitary Agency using protein A to precipitate antibody antigen complex.

The nature of data set [1]: In vitro plasma stability by porcine plasma incubation at 37° C. The format is in vitro ADME. The note with it: pooled porcine plasma, 100 μg/ml, HPLC after SEP-PAK extraction. The procedure: In vitro plasma stability of GRF analogs were determined by porcine plasma incubation at 37° C. Pooled porcine plasma was collected from control pigs and stored at -20° C. GRF analogs of interest were prepared as discussed above. The plasma was first thawed and centrifuged at 3000 rpm for 20 minutes at 4° C. The plasma was then placed in a shaker bath at a temperature of 37° C. and allowed to equilibrate for 10 minutes. GRF analogs were dissolved in water containing 0.1% TFA at a concentration of 2 μg/μl. As soon as the initial equilibration was completed, an analog was added into the plasma sample to a final concentration of 100 μg/ml. Immediately after the addition of a GRF analog, a 1 ml aliquot of plasma sample was withdrawn and acidified with 0.2 ml of 0.1M TFA/H2 O and kept at 0° C. for later solid phase extraction. The remaining plasma samples were incubated in the water bath and 1 ml aliquots were withdrawn at different time periods and acidified by the same procedure described above.
Plasma samples were extracted with SEP-PAK octadecyl columns (Waters Associates). The column cartridge was washed with 2 ml 80% acetic acid followed by 4 ml of 0.01M TFA. After the plasma sample was loaded, the column was washed with 3 ml of 0.1M TFA to remove the excess unbound biological material. The solvent remaining in the cartridges was forced out by two passes of air from a 10 ml syringe. The bound material was then eluted with 80% acetic acid and 3 ml eluate was collected for chromatographic analysis. Two high performance liquid chromatography systems were used. System A: Instrumentation--Perkin-Elmer Series 4 liquid chromatography microprocessor-controlled solvent delivery system, Waters intelligent sample processor (WISP) model 710 (Waters Associates), and a Hewlett-Packard 1040M Diode Assay Detection System. Column--Delta Pak C18, 3.5×150 mm, 5 μm spherical (Nihon Waters Ltd.). Mobile phase-(A) 0.1% TFA in H2 O, (B) 0.1% TFA in 95% acetonitrile and 5% H2 O. Gradient was 34-50% (B) in 60 minutes, flow rate 1 ml/minute, and the detection was at 215 nm. System B: Instrumentation--Waters 600 multi-solvent delivery system, WISP model 712 and LDC spectromonitor III. Column--Vydac 201TP54, C18 4.6×250 mm, 10 μm (The Separations Group). Mobile phase--same as in System A. Gradient max 30% (B) isocratic for 10 minutes, followed by 30-50% (B) gradient for 60 minutes, flow rate was 1 ml/minute, and the detection was at 215 nm. Amino acid analysis was done as described above. Results of plasma half life are found in Table 2.

Where a SMILES comes first, the peptide text is derived from it. Where no end group is shown, it is not given here. The star is where a group is joined. Desaminohistidyl = O=C(CCc1c[nH]cn1)*

As to `CC[C@H](C)[C@H](NC(=O)[C@H](C)NC(=O)[C@H](CC(=O)O)NC(=O)[C@@H](NC(=O)CCc1c[nH]cn1)C(C)C)C(=O)N[C@@H](Cc1ccccc1)C(=O)N[C@H](C(=O)N[C@@H](CC(N)=O)C(=O)N[C@@H](CO)C(=O)N[C@@H](Cc1ccc(O)cc1)C(=O)N[C@@H](CCCNC(=N)N)C(=O)N[C@@H](CCCCN)C(=O)N[C@H](C(=O)N[C@@H](CC(C)C)C(=O)N[C@@H](C)C(=O)N[C@@H](CCC(N)=O)C(=O)N[C@@H](CC(C)C)C(=O)N[C@@H](CO)C(=O)N[C@@H](C)C(=O)N[C@@H](CCCNC(=N)N)C(=O)N[C@@H](CCCCN)C(=O)N[C@@H](CC(C)C)C(=O)N[C@@H](CC(C)C)C(=O)N[C@@H](CCC(N)=O)C(=O)N[C@@H](CC(=O)O)C(=O)N[C@H](C(=O)N[C@@H](CCSC)C(=O)N[C@@H](CO)C(=O)N[C@@H](CCCNC(=N)N)C(N)=O)[C@@H](C)CC)C(C)C)[C@@H](C)O` [[desNH2 His^1,Val^2,Ala^15]-GRF(1-29)-NH2] (Desaminohistidyl-VDAIFTNSYRKVLAQLSARKLLQDIMSR-NH2), in the data set with rat pituitary cells, the “Potency of GRF Analogs Relative to GRF(1-44)-NH2” value stood at 1.21.
With `CC[C@H](C)[C@H](NC(=O)[C@H](C)NC(=O)[C@H](CC(=O)O)NC(=O)[C@H](C)NC(=O)[C@@H](N)Cc1ccc(O)cc1)C(=O)N[C@@H](Cc1ccccc1)C(=O)N[C@H](C(=O)N[C@@H](CC(N)=O)C(=O)N[C@@H](CO)C(=O)N[C@@H](Cc1ccc(O)cc1)C(=O)N[C@@H](CCCNC(=N)N)C(=O)N[C@@H](CCCCN)C(=O)N[C@H](C(=O)N[C@@H](CC(C)C)C(=O)NCC(=O)N[C@@H](CCC(N)=O)C(=O)N[C@@H](CC(C)C)C(=O)N[C@@H](CO)C(=O)N[C@@H](C)C(=O)N[C@@H](CCCNC(=N)N)C(=O)N[C@@H](CCCCN)C(=O)N[C@@H](CC(C)C)C(=O)N[C@@H](CC(C)C)C(=O)N[C@@H](CCC(N)=O)C(=O)N[C@@H](CC(=O)O)C(=O)N[C@H](C(=O)N[C@@H](CCSC)C(=O)N[C@@H](CO)C(=O)N[C@@H](CCCNC(=N)N)C(N)=O)[C@@H](C)CC)C(C)C)[C@@H](C)O` [GRF(1-29)-NH2, reference compound], in the data set with rat pituitary cells, the “Potency of GRF Analogs Relative to GRF(1-44)-NH2” value was 0.71. The “Half Life (t1/2)” value in data set [1] was found to be 0.217 h.
On the same counts, the results for “HVDAIFTNSYRKVLAQLSARKLLQDIMSR-NH2 [[His^1,Val^2,Ala^15]-GRF(1-29)-NH2]” are 2.58 and 1 h.
“YVDAIFTNSYRKVLAQLSARKLLQDILSRQQG [[Val^2,Ala^15,Leu^27]-GRF(1-32)-OH]”: the “Half Life (t1/2)” value in data set [1] came to 1.17 h.
For “HVDAIFTNSYRKVLAQLSARKLLQDILSRQQG [[His^1,Val^2,Ala^15,Leu^27]-GRF(1-32)-OH]”, the “Potency of GRF Analogs Relative to GRF(1-44)-NH2” value in the data set on rat pituitary cells is 2.40. The “Half Life (t1/2)” value in data set [1] worked out at 1 h.
As for “YADAIFTNSYRKVLAQLSARKLLQDIMSR-NH2 [[Ala^15]-GRF(1-29)-NH2, reference compound]”, the “Half Life (t1/2)” value in data set [1] turned out to be 0.283 h.
For the molecule “HIDAIFTNSYRKVLAQLSARKLLQDIMSR-NH2 [[His^1,Ile^2,Ala^15]-GRF(1-29)-NH2]”, the “Potency of GRF Analogs Relative to GRF(1-44)-NH2” value with rat pituitary cells came out at 1.24.
For the molecule `CC[C@H](C)[C@H](NC(=O)[C@H](C)NC(=O)[C@H](CC(=O)O)NC(=O)[C@H](C)NC(=O)[C@@H](N)Cc1ccc(O)cc1)C(=O)N[C@@H](Cc1ccccc1)C(=O)N[C@H](C(=O)N[C@@H](CC(N)=O)C(=O)N[C@@H](CO)C(=O)N[C@@H](Cc1ccc(O)cc1)C(=O)N[C@@H](CCCNC(=N)N)C(=O)N[C@@H](CCCCN)C(=O)N[C@H](C(=O)N[C@@H](CC(C)C)C(=O)NCC(=O)N[C@@H](CCC(N)=O)C(=O)N[C@@H](CC(C)C)C(=O)N[C@@H](CO)C(=O)N[C@@H](C)C(=O)N[C@@H](CCCNC(=N)N)C(=O)N[C@@H](CCCCN)C(=O)N[C@@H](CC(C)C)C(=O)N[C@@H](CC(C)C)C(=O)N[C@@H](CCC(N)=O)C(=O)N[C@@H](CC(=O)O)C(=O)N[C@H](C(=O)N[C@@H](CCSC)C(=O)N[C@@H](CO)C(=O)N[C@@H](CCCNC(=N)N)C(=O)N[C@@H](CCC(N)=O)C(=O)N[C@@H](CCC(N)=O)C(=O)NCC(=O)N[C@@H](CCC(=O)O)C(=O)N[C@@H](CO)C(=O)N[C@@H](CC(N)=O)C(=O)N[C@@H](CCC(N)=O)C(=O)N[C@@H](CCC(=O)O)C(=O)N[C@@H](CCCNC(=N)N)C(=O)NCC(=O)N[C@@H](C)C(=O)N[C@@H](CCCNC(=N)N)C(=O)N[C@@H](C)C(=O)N[C@@H](CCCNC(=N)N)C(=O)N[C@@H](CC(C)C)C(N)=O)[C@@H](C)CC)C(C)C)[C@@H](C)O` [GRF(1-44)-NH2, reference compound], in the data set on rat pituitary cells, the “Potency of GRF Analogs Relative to GRF(1-44)-NH2” value was found to be 1.00.

For the origin of these results see US5696089A, “Histidine substituted growth hormone releasing factor analogs” (Roche Vitamins Inc., priority 1995, dated 1997).
